Experimental data published in patent publication US20230226005A1, “Methods of Treating, Ameliorating, Shortening Duration, and/or Reversing Symptoms and/or Complications of a Coronavirus Infection” (Yale University, priority 2020, published 2023).

How the values were obtained:
SARS-CoV-2 [1] = assay: Phase IIa double-blind placebo-controlled study, camostat mesylate 200 mg four times daily for seven days: viral load (log10) by COVID-19 RT-PCR of nasopharyngeal swab and saliva; assay type: in vivo; conditions: for viral load (log10) Mean / viral load (log10) Median / change in viral load from baseline, Mean / change in viral load from baseline, Median: S gene; for viral load Camostat LSMean Change (SE) / viral load change Difference (SE) between treatment groups: ANCOVA linear mixed model, n = 57; for viral load change Difference (SE) between treatment groups: placebo minus camostat
COVID-19 infection [2] = assay: Phase IIa study: throat-family symptom score; assay type: in vivo
COVID-19 infection [3] = assay: Phase IIa study: eye-family symptom score; assay type: in vivo
SARS-CoV-2 [4] = conditions: 600 mg po four times daily for up to 14 days; cited from earlier work
[5] = visit 3 (day 4), listed as Camostat

## CN(C)C(=O)COC(=O)Cc1ccc(OC(=O)c2ccc(NC(=N)N)cc2)cc1 [camostat, 4-[[4-[(Aminoiminomethyl)amino]benzoyl]oxy]benzeneacetic acid 2-(dimethylamino)-2-oxoethyl ester]
SARS-CoV-2 [1]; visit 2 (day 2)
  viral load (log10) Mean: 3.04 log10
  viral load (log10) Median: 3.22 log10
  viral load Camostat LSMean Change (SE): −1.10 (0.30) log10
  viral load change Difference (SE) between treatment groups: −0.01 (0.42) log10
SARS-CoV-2 [1]; visit 3 (day 4)
  change in viral load from baseline, Mean: −2.06 log10
  change in viral load from baseline, Median: −1.94 log10
  viral load (log10) Mean: 2.42 log10
  viral load (log10) Median: 1.01 log10
  viral load Camostat LSMean Change (SE): −1.94 log10
  viral load change Difference (SE) between treatment groups: −0.69 log10
SARS-CoV-2 [1]; visit 4 (day 6)
  change in viral load from baseline, Mean: −2.70 log10
  change in viral load from baseline, Median: −2.41 log10
  viral load (log10) Mean: 1.48 log10
  viral load (log10) Median: 0.00 log10
  viral load Camostat LSMean Change (SE): −3.22 (0.46) log10
  viral load change Difference (SE) between treatment groups: −0.39 (0.63) log10
SARS-CoV-2 [1]; visit 5 (day 14)
  change in viral load from baseline, Mean: −4.20 log10
  change in viral load from baseline, Median: −4.28 log10
  viral load (log10) Mean: 0.27 log10
  viral load (log10) Median: 0.00 log10
SARS-CoV-2 [1]; visit 6 (day 28)
  change in viral load from baseline, Mean: −4.37 log10
  change in viral load from baseline, Median: −4.88 log10
  viral load (log10) Mean: 0.00 log10
  viral load (log10) Median: 0.00 log10
SARS-CoV-2 [1]; [5]
  viral load Camostat LSMean Change (SE): −1.94 (0.32) log10
  viral load change Difference (SE) between treatment groups: −0.69 (0.45) log10
COVID-19 infection [2]; day 0
  throat-family symptom score, Fitzmaurice model, Camostat: 2.3 (0.3)
COVID-19 infection [2]; day 1
  throat-family symptom score, Fitzmaurice model, Camostat: 2 (0.3)
  throat-family symptom score, Fitzmaurice model, Effect (placebo vs camostat): −0.7 (0.4)
COVID-19 infection [2]; day 2
  throat-family symptom score, Fitzmaurice model, Camostat: 1.7 (0.4)
  throat-family symptom score, Fitzmaurice model, Effect (placebo vs camostat): −0.8 (0.4)
COVID-19 infection [2]; day 3
  throat-family symptom score, Fitzmaurice model, Camostat: 1.6 (0.3)
  throat-family symptom score, Fitzmaurice model, Effect (placebo vs camostat): −0.7 (0.4)
COVID-19 infection [2]; day 4
  throat-family symptom score, Fitzmaurice model, Camostat: 1.7 (0.3)
  throat-family symptom score, Fitzmaurice model, Effect (placebo vs camostat): −0.9 (0.4)
COVID-19 infection [2]; day 5
  throat-family symptom score, Fitzmaurice model, Camostat: 1.1 (0.3)
  throat-family symptom score, Fitzmaurice model, Effect (placebo vs camostat): −0.2 (0.4)
COVID-19 infection [2]; day 6
  throat-family symptom score, Fitzmaurice model, Camostat: 0.9 (0.4)
  throat-family symptom score, Fitzmaurice model, Effect (placebo vs camostat): −0.1 (0.4)
COVID-19 infection [2]; day 7
  throat-family symptom score, Fitzmaurice model, Camostat: 0.7 (0.4)
  throat-family symptom score, Fitzmaurice model, Effect (placebo vs camostat): −0.3 (0.4)
COVID-19 infection [2]; day 8
  throat-family symptom score, Fitzmaurice model, Camostat: 0.6 (0.4)
  throat-family symptom score, Fitzmaurice model, Effect (placebo vs camostat): −0.2 (0.4)
COVID-19 infection [2]; day 9
  throat-family symptom score, Fitzmaurice model, Camostat: 0.4 (0.4)
  throat-family symptom score, Fitzmaurice model, Effect (placebo vs camostat): −0.1 (0.4)
COVID-19 infection [2]; day 10
  throat-family symptom score, Fitzmaurice model, Camostat: 0.5 (0.4)
  throat-family symptom score, Fitzmaurice model, Effect (placebo vs camostat): −0.4 (0.4)
COVID-19 infection [2]; day 11
  throat-family symptom score, Fitzmaurice model, Camostat: 0.6 (0.4)
  throat-family symptom score, Fitzmaurice model, Effect (placebo vs camostat): −0.4 (0.4)
COVID-19 infection [2]; day 12
  throat-family symptom score, Fitzmaurice model, Camostat: 0.5 (0.4)
  throat-family symptom score, Fitzmaurice model, Effect (placebo vs camostat): −0.4 (0.4)
COVID-19 infection [2]; day 13
  throat-family symptom score, Fitzmaurice model, Camostat: 0.5 (0.4)
  throat-family symptom score, Fitzmaurice model, Effect (placebo vs camostat): −0.4 (0.5)
COVID-19 infection [2]; day 14
  throat-family symptom score, Fitzmaurice model, Camostat: 0.5 (0.4)
  throat-family symptom score, Fitzmaurice model, Effect (placebo vs camostat): −0.5 (0.5)
COVID-19 infection [3]; day 0
  eye-family symptom score, Fitzmaurice model, Camostat: 1.4 (0.2)
COVID-19 infection [3]; day 1
  eye-family symptom score, Fitzmaurice model, Camostat: 1.4 (0.2)
  eye-family symptom score, Fitzmaurice model, Effect (placebo vs camostat): −0.3 (0.3)
COVID-19 infection [3]; day 2
  eye-family symptom score, Fitzmaurice model, Camostat: 1.2 (0.2)
  eye-family symptom score, Fitzmaurice model, Effect (placebo vs camostat): −0.2 (0.3)
COVID-19 infection [3]; day 3
  eye-family symptom score, Fitzmaurice model, Camostat: 0.9 (0.2)
  eye-family symptom score, Fitzmaurice model, Effect (placebo vs camostat): −0.2 (0.3)
COVID-19 infection [3]; day 4
  eye-family symptom score, Fitzmaurice model, Camostat: 0.5 (0.2)
  eye-family symptom score, Fitzmaurice model, Effect (placebo vs camostat): 0.2 (0.3)
COVID-19 infection [3]; day 5
  eye-family symptom score, Fitzmaurice model, Camostat: 0.5 (0.2)
  eye-family symptom score, Fitzmaurice model, Effect (placebo vs camostat): −0.2 (0.3)
COVID-19 infection [3]; day 6
  eye-family symptom score, Fitzmaurice model, Camostat: 0.2 (0.2)
  eye-family symptom score, Fitzmaurice model, Effect (placebo vs camostat): 0.3 (0.3)
COVID-19 infection [3]; day 7
  eye-family symptom score, Fitzmaurice model, Camostat: 0.2 (0.2)
  eye-family symptom score, Fitzmaurice model, Effect (placebo vs camostat): 0.3 (0.3)
COVID-19 infection [3]; day 8
  eye-family symptom score, Fitzmaurice model, Camostat: 0.1 (0.2)
  eye-family symptom score, Fitzmaurice model, Effect (placebo vs camostat): 0.5 (0.3)
COVID-19 infection [3]; day 9
  eye-family symptom score, Fitzmaurice model, Camostat: 0.2 (0.2)
  eye-family symptom score, Fitzmaurice model, Effect (placebo vs camostat): 0.4 (0.3)
COVID-19 infection [3]; day 10
  eye-family symptom score, Fitzmaurice model, Camostat: 0.2 (0.2)
  eye-family symptom score, Fitzmaurice model, Effect (placebo vs camostat): 0.3 (0.3)
COVID-19 infection [3]; day 11
  eye-family symptom score, Fitzmaurice model, Camostat: 0 (0.2)
  eye-family symptom score, Fitzmaurice model, Effect (placebo vs camostat): 0.4 (0.3)
COVID-19 infection [3]; day 12
  eye-family symptom score, Fitzmaurice model, Camostat: 0 (0.2)
  eye-family symptom score, Fitzmaurice model, Effect (placebo vs camostat): 0.3 (0.3)
COVID-19 infection [3]; day 13
  eye-family symptom score, Fitzmaurice model, Camostat: 0.1 (0.2)
  eye-family symptom score, Fitzmaurice model, Effect (placebo vs camostat): 0.1 (0.3)
COVID-19 infection [3]; day 14
  eye-family symptom score, Fitzmaurice model, Camostat: 0.2 (0.2)
  eye-family symptom score, Fitzmaurice model, Effect (placebo vs camostat): 0.1 (0.3)
SARS-CoV-2 [4]
  time required for a negative SARS-CoV-2 test (primary endpoint): did not show efficacy
